Blank lines part the entries; values can stand above or below the molecule they belong to.
Target: T1, recombinant human Flag-tagged PARP7 (amino acids 456-657) (Homo sapiens, UniProt Q7Z3E1)
T1 construct: recombinant human Flag-tagged PARP7 (amino acids 456-657)
T1 sequence (Q7Z3E1 456-657): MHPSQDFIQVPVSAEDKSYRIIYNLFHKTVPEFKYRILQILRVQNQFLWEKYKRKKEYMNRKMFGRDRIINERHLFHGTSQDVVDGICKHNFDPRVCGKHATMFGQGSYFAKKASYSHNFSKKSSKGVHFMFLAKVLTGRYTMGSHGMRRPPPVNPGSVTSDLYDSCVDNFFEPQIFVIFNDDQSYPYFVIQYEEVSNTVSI
Experiment: PARP7 biochemical DELFIA assay (auto-MARylation)
Conditions: DELFIA readout, IC50 class
Experimental: A suitable assay may be conducted using 10-30 nM PARP7 (amino acids 456-657), 2 μM biotin-NAD assay solution in 20 mM HEPES (pH 7.5), 100 mM NaCl, 2 mM DTT, 0.1% BSA (w/v), 0.02% Tween (v/v) assay buffer. MARylation may take place for 2-3 h at room temperature and may be detected using a dissociation-enhanced lanthanide fluorescence immunoassay (DELFIA) readout. This assay format has been recently utilised for screening for modulators of PARP7 and other MonoPARP enzymes ([…]. et al. Forced Self-Modification Assays as a Strategy to Screen MonoPARP Enzymes. SLAS Discovery. 25; 241-252, (2020)). A particularly suitable assay is described in the Examples below. Optiplate HB 384-well plates were coated with anti-FLAG antibody, supplied as a 4 mg/ml solution, using a Na2CO3/HCO3 coating buffer at pH 9.6, overnight at 4° C., in order to achieve a final immobilisation per well of 0.3 μg. Wells were then washed 3× in coating wash buffer (PBS/0.05% Tween (v/v)), blocked with 2% BSA (w/v) in coating wash buffer and washed 3 further times prior to assay. For the assay 20 μl of 12.5-37.5 nM recombinant human Flag-tagged PARP7 (amino acids 456-657) was added to each well of the 384-well plate for 30 min at room temperature. 50 nl of test compound in DMSO was added using pintool technology and plates were incubated for a further 30 min at room temperature. 5 μl of 15 μM biotin-NAD^+ assay solution in 20 mM HEPES (pH 7.5), 100 mM NaCl, 2 mM DTT, 0.1% BSA (w/v), 0.02% Tween (v/v) assay buffer was then added and MARylation proceeded for 2-3 h at room temperature prior to the addition of 5 μl of 12 mM NAD^+ quenching solution. After 30 min at room temperature, assay solution was removed and following washing 5 times, 100 μl of a 1:1000 dilution of DELFIA Eu-N1 Streptavidin reagent was added. Plates were then incubated for 30 min at room temperature. Reaction mixture was removed and plates washed 5 times prior to the addition of 25 μl DELFIA enhancement solution. Following incubation for 30 min at room temperature, fluorescence was read on either an Envision or Pherastar FS (Ex337 nm, Em620 nm).

SMILES: CC1CN(c2ncc(C(F)(F)F)cn2)CCN1C(=O)CCOCCn1cc(C(F)(F)F)c2c(=O)[nH]ncc21 (single isomer, unassigned) [Compound 371]
IC50: ≤ 100 nM

SMILES: CC(COCCC(=O)N1CCN(c2ccc(Cl)cn2)CC1)n1cc(C(F)(F)F)c2c(=O)[nH]ncc21 (single isomer, unassigned) [Compound 375]
IC50: ≤ 100 nM

SMILES: CC(COCCC(=O)N1CCN(c2ncc(OC(F)(F)F)cn2)CC1)n1nc(C(F)(F)F)c2c(=O)[nH]ncc21 (single isomer, unassigned) [Compound 387]
IC50: ≤ 100 nM

SMILES: CC(COCCC(=O)N1CCN(c2nnc(C(F)(F)F)[nH]2)CC1)n1nc(C(F)(F)F)c2c(=O)[nH]ncc21 (single isomer, unassigned) [Compound 393]
IC50: ≤ 100 nM

SMILES: CC(COCCC(=O)N1CCN(c2ncccc2C#N)CC1)n1nc(C(F)(F)F)c2c(=O)[nH]ncc21 (single isomer, unassigned) [Compound 405]
IC50: 100 to 1000 nM

SMILES: CC(COCCC(=O)N1CCN(c2ncccc2C#N)CC1)n1nc(C(F)(F)F)c2c(=O)[nH]ncc21 (single isomer, unassigned) [Compound 406]
IC50: ≤ 100 nM

SMILES: CC(COCCn1cc(C(F)(F)F)c2c(=O)[nH]ncc21)C(=O)N1CCN(c2ncc(C(F)(F)F)cn2)CC1 (single isomer, unassigned) [Compound 411]
IC50: ≤ 100 nM

SMILES: CC(COCCC(=O)N1CCN(c2ccc(C#N)cn2)CC1)c1ccc(Cl)c2c(=O)[nH]ncc12 (single isomer, unassigned) [Compound 416]
IC50: ≤ 100 nM

SMILES: CC(COCCC(=O)N1CCN(c2cc(F)c(F)cn2)CC1)n1nc(C(F)(F)F)c2c(=O)[nH]ncc21 (single isomer, unassigned) [Compound 418]
IC50: ≤ 100 nM

SMILES: CC(COCCC(=O)N1CCN(c2cc(F)c(F)cn2)CC1)n1nc(C(F)(F)F)c2c(=O)[nH]ncc21 (single isomer, unassigned) [Compound 419]
IC50: ≤ 100 nM

SMILES: [2H]C([2H])(OCCC(=O)N1CCN(c2ncc(C(F)(F)F)cn2)CC1)C(C)n1nc(C(F)(F)F)c2c(=O)[nH]ncc21 (single isomer, unassigned) [Compound 423]
IC50: ≤ 100 nM

SMILES: O=C(CCOCC(c1cccc2c(=O)[nH]ncc12)C(F)(F)F)N1CCN(c2ncc(C(F)(F)F)cn2)CC1 (single isomer, unassigned) [Compound 427]
IC50: 100 to 1000 nM

SMILES: CC(COCCC(=O)N1CCN(c2cc(C(F)(F)F)on2)CC1)n1nc(C(F)(F)F)c2c(=O)[nH]ncc21 (single isomer, unassigned) [Compound 429]
IC50: ≤ 100 nM

SMILES: CC(COCCC(=O)N1CCN(c2cc(C(F)(F)F)on2)CC1)n1nc(C(F)(F)F)c2c(=O)[nH]ncc21 (single isomer, unassigned) [Compound 430]
IC50: 100 to 1000 nM

SMILES: CC(COCCC(=O)N1CCN(c2cc(Cl)c(F)cn2)CC1)n1nc(C(F)(F)F)c2c(=O)[nH]ncc21 (single isomer, unassigned) [Compound 444]
IC50: ≤ 100 nM

SMILES: CC(COCCC(=O)N1CCN(c2cc(Cl)c(F)cn2)CC1)n1nc(C(F)(F)F)c2c(=O)[nH]ncc21 (single isomer, unassigned) [Compound 445]
IC50: ≤ 100 nM

SMILES: CC(CCOCC(=O)N1CCN(c2ncc(C(F)(F)F)cn2)CC1)n1cc(C(F)(F)F)c2c(=O)[nH]ncc21 (single isomer, unassigned) [Compound 455]
IC50: ≤ 100 nM

SMILES: CC(CCOCC(=O)N1CCN(c2ncc(Cl)cn2)CC1)n1cc(C(F)(F)F)c2c(=O)[nH]ncc21 (single isomer, unassigned) [Compound 456]
IC50: ≤ 100 nM

SMILES: CC(CCOCC(=O)N1CCN(c2ncc(Cl)cn2)CC1)n1cc(C(F)(F)F)c2c(=O)[nH]ncc21 (single isomer, unassigned) [Compound 457]
IC50: ≤ 100 nM

SMILES: CC(COCC(=O)NC1CCN(c2ncc(C(F)(F)F)cn2)CC1)n1cc(C(F)(F)F)c2c(=O)[nH]ncc21 (single isomer, unassigned) [Compound 459]
IC50: ≤ 100 nM

SMILES: CC(COCC(=O)N(C)C1CCN(c2ncc(C(F)(F)F)cn2)CC1)n1nc(C(F)(F)F)c2c(=O)[nH]ncc21 (single isomer, unassigned) [Compound 460, N-methyl-2-(2-(4-oxo-3-(trifluoromethyl)-4,5-dihydro-1H-pyrazolo[3,4-d]pyridazin-1-yl)propoxy)-N-(1-(5-(trifluoromethyl)pyrimidin-2-yl)piperidin-4-yl) acetamide]
IC50: ≤ 100 nM

SMILES: CC(COCC(=O)N(C)C1CCN(c2ncc(C(F)(F)F)cn2)CC1)n1nc(C(F)(F)F)c2c(=O)[nH]ncc21 (single isomer, unassigned) [Compound 461, N-methyl-2-(2-(4-oxo-3-(trifluoromethyl)-4,5-dihydro-1H-pyrazolo[3,4-d]pyridazin-1-yl)propoxy)-N-(1-(5-(trifluoromethyl)pyrimidin-2-yl)piperidin-4-yl) acetamide]
IC50: ≤ 100 nM

SMILES: CC(COCC(=O)N(C)C1CCN(c2ncc(C(F)(F)F)cn2)CC1)n1cc(C(F)(F)F)c2c(=O)[nH]ncc21 (single isomer, unassigned) [Compound 462]
IC50: ≤ 100 nM

SMILES: CC(CCOCC(=O)N1CCN(c2ccc(C#N)cn2)CC1)n1nc(C(F)(F)F)c2c(=O)[nH]ncc21 (single isomer, unassigned) [Compound 466]
IC50: ≤ 100 nM

The remaining lines, values ahead:

IC50: ≤ 100 nM
SMILES: CC(COCCC(=O)N1CCN(c2ncc(C(F)(F)F)cn2)CC1)n1cc(C(F)F)c2c(=O)[nH]ncc21 (single isomer, unassigned) [Compound 395, 3-(difluoromethyl)-1-(1-(3-oxo-3-(4-(5-(trifluoromethyl)pyrimidin-2-yl)piperazin-1-yl)propoxy)propan-2-yl)-1,5-dihydro-4H-pyrrolo[2,3-d]pyridazin-4-one]

IC50: ≤ 100 nM
SMILES: CC(COCCC(=O)N1CCN(c2ncc(C(F)(F)F)cn2)CC1)n1cc(C(F)F)c2c(=O)[nH]ncc21 (single isomer, unassigned) [Compound 396, 3-(difluoromethyl)-1-(1-(3-oxo-3-(4-(5-(trifluoromethyl)pyrimidin-2-yl)piperazin-1-yl)propoxy)propan-2-yl)-1,5-dihydro-4H-pyrrolo[2,3-d]pyridazin-4-one]

IC50: 100 to 1000 nM
SMILES: CC(COCCC(=O)N1CCN(c2ncc(C#N)cn2)CC1)c1ccc(Cl)c2c(=O)[nH]ncc12 (single isomer, unassigned) [Compound 414]

IC50: ≤ 100 nM
SMILES: [2H]C([2H])(OCCC(=O)N1CCN(c2ncc(C#N)cn2)CC1)C(C)n1nc(C(F)(F)F)c2c(=O)[nH]ncc21 (single isomer, unassigned) [Compound 420, 2-(4-(3-(2-(4-oxo-3-(trifluoromethyl)-4,5-dihydro-1H-pyrazolo[3,4-d]pyridazin-1-yl)propoxy-1,1-d2)propanoyl)piperazin-1-yl)pyrimidine-5-carbonitrile]

IC50: ≤ 100 nM
SMILES: [2H]C([2H])(OCCC(=O)N1CCN(c2ncc(C#N)cn2)CC1)C(C)n1nc(C(F)(F)F)c2c(=O)[nH]ncc21 (single isomer, unassigned) [Compound 421, 2-(4-(3-(2-(4-oxo-3-(trifluoromethyl)-4,5-dihydro-1H-pyrazolo[3,4-d]pyridazin-1-yl)propoxy-1,1-d2)propanoyl)piperazin-1-yl)pyrimidine-5-carbonitrile]

IC50: ≤ 100 nM
SMILES: CC(COCCC(=O)N1CCN(c2ccc(C#N)cn2)CC1)n1cc(C(F)(F)F)c2c(=O)[nH]ncc21 (single isomer, unassigned) [Compound 431]

IC50: ≤ 100 nM
SMILES: CC(COCCC(=O)N1CCN(c2ccc(C#N)cn2)CC1)n1cc(C(F)(F)F)c2c(=O)[nH]ncc21 (single isomer, unassigned) [Compound 432]

IC50: ≤ 100 nM
SMILES: CC(COCCC(=O)N1CCN(c2ncc(C(F)(F)F)cn2)CC1)n1nc(C(F)F)c2c(=O)[nH]ncc21 (single isomer, unassigned) [Compound 436]

IC50: ≤ 100 nM
SMILES: CC(COCCC(=O)N1CCN(c2ccc(C#N)cn2)CC1)n1nc(C(F)F)c2c(=O)[nH]ncc21 (single isomer, unassigned) [Compound 437]

IC50: ≤ 100 nM
SMILES: CC(COCCC(=O)N1CCN(c2ncc(C#N)cn2)CC1)n1cc(C(F)F)c2c(=O)[nH]ncc21 (single isomer, unassigned) [Compound 439]

IC50: ≤ 100 nM
SMILES: CC(COCCC(=O)N1CCN(c2ccc(C#N)cn2)CC1)n1cc(C(F)F)c2c(=O)[nH]ncc21 (single isomer, unassigned) [Compound 448]

IC50: ≤ 100 nM
SMILES: CC(COCCC(=O)N1CCN(c2ncc(C#N)cn2)CC1)n1cc(C(F)(F)F)c2c(=O)[nH]ncc21 (single isomer, unassigned) [Compound 464]

— US20240217968A1, “PHARMACEUTICAL COMPOUND” (DUKE STREET BIO LIMITED, priority 2021, published 2024)
